Source: EP2433927A1, “KETOXIME ESTER PHOTOINITIATOR” (Changzhou Tronly New Electronic Materials Co., Ltd, priority 2009, dated 2010)

How the values were obtained:
[1] = Thermal stability by TGA (temperature at weight loss); format: physicochemical; details: for Temp. at Weight Loss 5% / Temp. at Weight Loss 10% / Temp. at Weight Loss 15%: TGA, N2 at 10 °C/min; for Temp. at Weight Loss 5%: 5% weight loss; for Temp. at Weight Loss 10%: 10% weight loss; for Temp. at Weight Loss 15%: 15% weight loss; for thermal stability: result in words, compared with material A (OXE-1)
[2] = Solubility of the photoinitiators in organic solvents; format: physicochemical; details: 20°C, 100 g solvent

SMILES | Temp. at Weight Loss 5% [1] | Temp. at Weight Loss 10% [1] | Temp. at Weight Loss 15% [1] | thermal stability [1] | solubility ([2]; solvent PGMEA) | solubility ([2]; solvent cyclohexanone)
O=C(ON=C(CC1CCCC1)C(=O)c1ccc(Sc2ccccc2)cc1)c1ccccc1 [B, 1-(4-phenylthiophenyl)-(3-cyclopentyl)-propane-1,2-dione-2-benzoic acid oxime ester] | 205 °C | 225 °C | 236 °C | better thermal stability than that of material A | 27.49 g | 35 g
CCCCCCC(=NOC(=O)c1ccccc1)C(=O)c1ccc(Sc2ccccc2)cc1 [A, 1-(4-phenylthiophenyl)-n-octane-1,2-dione-2-benzoic acid oxime ester, reference compound] | 185 °C | 201 °C | 213 °C | – | – | –
CCn1c2ccc(C(=O)C(CC3CCCC3)=NOC(=O)c3ccccc3)cc2c2cc(C(=O)c3ccccc3C)ccc21 [C, 1-(6-o-methylbenzoyl-9-ethylcarbazole-3-yl)-(3-cyclopentyl)-propane-1,2-dione-2-benzoic acid oxime ester] | 230 °C | 245 °C | 255 °C | better thermal stability than that of material A | 6.93 g | 18 g
